Results as given in the NIST ThermoML archive (doi:10.1016/j.fluid.2009.11.030).
± gives the expanded uncertainty stated by the source.

Assay: excess molar enthalpy (molar enthalpy of mixing); xn = mol fraction of the nth substance listed
Conditions: 101.3 kPa, Liquid, Isothermal microcalorimeter

CCOC(=O)CC(=O)OCC [diethyl 1,3-propanedioate] + CC(C)CO
excess molar enthalpy [kcal/mol]
Conditions	288.15 K	298.15 K	313.15 K	328.15 K	338.15 K	348.15 K
x1 = 0.0502	0.146 ± 0.00263	0.146 ± 0.00263	0.165 ± 0.00311	0.168 ± 0.00311	0.166 ± 0.00311	0.159 ± 0.00311
x1 = 0.0983	0.252 ± 0.00287	0.265 ± 0.00311	0.293 ± 0.00335	0.3 ± 0.00335	0.298 ± 0.00359	0.296 ± 0.00359
x1 = 0.1494	0.3339 ± 0.00311	0.3583 ± 0.00335	0.396 ± 0.00382	0.4001 ± 0.00382	0.4065 ± 0.00382	0.4054 ± 0.00382
x1 = 0.2006	0.4018 ± 0.00359	0.4238 ± 0.00382	0.4785 ± 0.0043	0.4986 ± 0.0043	0.4993 ± 0.0043	0.4947 ± 0.0043
x1 = 0.2484	0.4517 ± 0.00382	0.4907 ± 0.0043	0.5428 ± 0.00454	0.5531 ± 0.00454	0.5588 ± 0.00454	0.5578 ± 0.00478
x1 = 0.2989	0.4924 ± 0.00406	0.537 ± 0.00454	0.588 ± 0.00478	0.613 ± 0.00502	0.6095 ± 0.00502	0.6121 ± 0.00502
x1 = 0.3486	0.5217 ± 0.0043	0.5636 ± 0.00454	0.6226 ± 0.00502	0.6508 ± 0.00526	0.6477 ± 0.00526	0.6456 ± 0.00526
x1 = 0.3972	0.5413 ± 0.00454	0.5887 ± 0.00478	0.6475 ± 0.00526	0.662 ± 0.00526	0.6687 ± 0.00526	0.6649 ± 0.00526
x1 = 0.4484	0.5531 ± 0.00454	0.5985 ± 0.00478	0.6542 ± 0.00526	0.6752 ± 0.0055	0.674 ± 0.0055	0.6721 ± 0.0055
x1 = 0.4981	0.5598 ± 0.00454	0.6076 ± 0.00502	0.6513 ± 0.00526	0.6718 ± 0.0055	0.6699 ± 0.0055	0.6654 ± 0.00526
x1 = 0.5504	0.5535 ± 0.00454	0.5951 ± 0.00478	0.6367 ± 0.00526	0.6546 ± 0.00526	0.6537 ± 0.00526	0.6451 ± 0.00526
x1 = 0.6006	0.533 ± 0.0043	0.5739 ± 0.00478	0.6142 ± 0.00502	0.6224 ± 0.00502	0.6178 ± 0.00502	0.6171 ± 0.00502
x1 = 0.6485	0.5103 ± 0.0043	0.5473 ± 0.00454	0.5801 ± 0.00478	0.5863 ± 0.00478	0.5829 ± 0.00478	0.5772 ± 0.00478
x1 = 0.6985	0.4761 ± 0.00406	0.5029 ± 0.0043	0.538 ± 0.00454	0.5354 ± 0.00454	0.5261 ± 0.00454	0.5272 ± 0.0043
x1 = 0.7508	0.4223 ± 0.00359	0.4558 ± 0.00382	0.4775 ± 0.00406	0.4711 ± 0.00406	0.4606 ± 0.00406	0.4622 ± 0.00406
x1 = 0.8	0.3659 ± 0.00335	0.3905 ± 0.00359	0.4065 ± 0.00359	0.3972 ± 0.00359	0.3881 ± 0.00359	0.3846 ± 0.00359
x1 = 0.8514	0.295 ± 0.00311	0.31 ± 0.00311	0.3246 ± 0.00311	0.3131 ± 0.00311	0.304 ± 0.00311	0.297 ± 0.00311
x1 = 0.899	0.2 ± 0.00263	0.218 ± 0.00287	0.236 ± 0.00287	0.216 ± 0.00263	0.224 ± 0.00263	0.211 ± 0.00263
x1 = 0.9485	0.115 ± 0.00215	0.111 ± 0.00239	0.133 ± 0.00263	0.119 ± 0.00215	0.124 ± 0.00239	0.116 ± 0.00215
